The METLIN SMRT retention time set (Domingo-Almenara et al. 2019)

Experiment: gradient 5% acetonitrile 3 min, to 50% in 2 min, to 85% in 15 min, held 3 min, 100 µL/min
Details: column: Zorbax Extend-C18 2.1 x 50 mm; eluents: water / acetonitrile, 0.1% formic acid
How it was run: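 Mixtures of ~100 pure standards were chromatographed on a Zorbax Extend-C18 column (2.1 × 50 mm, 1.8 μm) at 100 μL/min using water and acetonitrile, each with 0.1% formic acid. Detection used a quadrupole time-of-flight mass spectrometer in positive and negative ionization mode, and data collection spanned 3 months. Retention time was obtained from adduct peaks picked computationally and each checked manually.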

Row | SMILES | RP-LC retention time [s]
1 | O=C(CC1CCCC1)NCCc1nc2cccnc2n1-c1ccccc1 | 736
2 | O=C(NCC1CCCO1)C1CCN(c2ncccc2-c2nc(-c3cccc(Cl)c3)no2)CC1 (centres undefined) | 990
3 | CC(C)Oc1ccc(-c2noc(Cn3c(=O)n(-c4ccccc4F)c(=O)c4sccc43)n2)cc1 | 1090
4 | CCOC(=O)c1c(C)[nH]c(C(=O)N2CCCC(C(=O)NCc3ccc(OC(C)C)cc3)C2)c1C (centres undefined) | 930
5 | COc1cc(NC(=O)[C@@H]2COCC(=O)N2Cc2ccc(OC)cc2OC)cc(OC)c1 | 702
6 | OC[C@@H]1CN(Cc2ccncc2F)C[C@H]1c1nc(-c2cccnc2)no1 | 560
7 | CCCN(CCC)CCCNC(=O)C1CCCN(c2nnc(N3CCCC3=O)s2)C1 (centres undefined) | 584
8 | Cc1ccc(N2CC(c3noc(-c4ccsc4)n3)CC2=O)cc1 (centres undefined) | 932
9 | N#CCCSc1ccccc1NC(=O)c1ccc(S(=O)(=O)N2CCOCC2)cc1 | 760
10 | CCN1CCC2(CC1)NC(=O)N(CC(=O)Nc1ccc(OC(F)(F)F)cc1)C2=O | 582
11 | CCn1c(=O)c(C)nc2cc(-c3noc(/C=C/c4ccc(C)cc4)n3)ccc21 | 1170
12 | CCOC(=O)c1ccc(NC(=O)Cn2c(=O)c(CCC(=O)NC)nc3ccccc32)cc1 | 1260
13 | Cc1ccc(C)c(N2CCN(c3ccnc(SCC(=O)Nc4ccc(C)c(F)c4)n3)CC2)c1 | 955
14 | Cc1c(C(=O)NC(C)C)cnn1-c1cc(-c2nc(C3CC3)no2)ccn1 | 865
15 | O=C(NCCn1c(=O)n(Cc2ccccc2)c2cccnc21)c1cnccn1 | 680
16 | CC1=NS(=O)(=O)N(C)C=C1C(=O)OCc1ccccc1Cl | 951
17 | COc1ccc(NC(=O)Cn2nc3c(Oc4cccc(Cl)c4)nccn3c2=O)cc1 | 859
18 | COC(=O)c1c(C)[nH]c(C(=O)N2CCCC(C(=O)NCc3ccccn3)C2)c1C (centres undefined) | 577
19 | COc1ccccc1C(=O)N1CCCC1c1nc(-c2ccc(F)cc2F)no1 (centres undefined) | 1020
20 | CN(CC1CCOCC1)S(=O)(=O)c1ccccc1F | 804
21 | CCOC(=O)c1cnc2c(OC)cccc2c1NCC1COc2ccccc2O1 (centres undefined) | 782
22 | O=C(Cn1c(=O)c2cccn2c2ccccc21)NCCCN1CCCCC1 | 595

Row | SMILES | RP-LC retention time [s]
23 | CCOC(=O)c1nc(NCCc2ccc(OCC)c(OCC)c2)c2ccccc2n1 | 801
24 | Cn1cc(C(CNS(=O)(=O)c2cnc[nH]2)c2cccnc2)c2ccccc21 (centres undefined) | 590
25 | COc1ccc(-c2cc(=O)n(CCNC(=O)c3c(F)cccc3F)cn2)cc1 | 678
26 | Cc1oc(-c2ccc(Cl)cc2)nc1COc1cc(C)c2c(C)nn(C)c2n1 | 1280
27 | Cc1cnc(C2CC2)n1C1CCN(S(=O)(=O)c2cccc(F)c2)C1 (centres undefined) | 654
28 | COc1ccc(CCNC(=O)C2CCN(S(=O)(=O)N(CC(C)C)CC(C)C)CC2)cc1OC | 992
29 | CCc1ccc(NC(=O)C2CC(=O)N(c3n[nH]c4cccc(F)c34)C2)cc1 (centres undefined) | 847
30 | CNC(=O)c1sc(-c2ccccc2)nc1C | 726
31 | Cc1sc(NC(=O)c2ccccc2Br)nc1-c1ccccc1 | 1090
32 | COc1ccc(-c2nnc(COc3ccc(NC(=O)c4ccc(Br)o4)cc3)o2)cc1 | 934
33 | Fc1cccc(Cc2noc(-c3nc(-c4ccccc4)no3)n2)c1 | 1160
34 | Cc1cc(C)n(-c2nc(-c3ccc(Cl)cc3)cs2)n1 | 1420
35 | COC(=O)C(C)NC(=O)N1CCN(c2nc3ccccc3n(Cc3ccccc3)c2=O)CC1 (centres undefined) | 869
36 | COc1ccc(CCNS(=O)(=O)c2cccc(-c3nc(-c4ccccc4)no3)c2)cc1OC | 1070
37 | CCCNc1cc(N2CCC(CCC(=O)NCCN3CCc4ccccc4C3)CC2)ncn1 | 574
38 | COc1ccc(S(=O)(=O)NC2CCc3nnc(C)n3CC2)cc1Cl (centres undefined) | 641
39 | COc1nccnc1NC1CCN(C(=O)c2cccn2C)CC1 | 570
40 | COc1ccc(CNS(=O)(=O)c2cc(-c3cc(C(F)(F)F)on3)sc2C)cc1 | 848
41 | Cn1nc(C(=O)N2CCCC2)c2c1CCN(C(=O)CCC(=O)NCCCN1CCCC1)C2 | 574
42 | O=C(Nc1ccc2c(c1)CCC2)c1ccnc(N2CCNC(c3ccccc3)C2)c1 (centres undefined) | 742
43 | COc1ccccc1N1CCN(C(=O)c2ccc(=O)n(Cc3ccc(F)cc3)n2)CC1 | 763
44 | CCc1ccc(-c2ccc(=O)n(CCc3nc(-c4cccc(C)c4)no3)n2)cc1 | 1180
